Measured values reported in patent publication US20030207933A1, “Compositions and methods for increasing the sensitivity of apoptosis-resistant tumor cells to inducers of apoptosis” (priority 2002, published 2003).

Legend:
HL-60 Bcl-2 cells = assay: DNA fragmentation (release of 3H-labeled DNA fragments) in Bcl-2-transfected HL-60 cells; assay type: cell-based, human
P3X63Ag8.653 (P3X) cells = assay: Drug-induced DNA fragmentation in Bcl-XL-overexpressing myeloma cells; assay type: cell-based, murine; settings: W-188 0.1 μg/mL; etoposide, chlorambucil, YW-200; 24 h; FIG. 5
Procedure: It has been reported that the murine myeloma, SP2/0, is highly sensitive to cycloheximide-induced apoptosis, whereas the related murine myeloma, P3X63Ag8.653 (P3X), was resistant (Gauthier, E. R., et al., Cancer Res., 1996, 56:1451). This resistance was attributed to natural high levels of expression of Bcl-XL in the absence of any detectable Bcl-2. In contrast, SP2 expressed neither Bcl-2 or Bcl-XL. Thus, normal (SP2) or Bcl-XL-overexpressing cells (P3X) were treated with chemotherapeutic drugs ±0.1 μg/ml W-188. After 24 h, % DNA fragmentation was measured by release of ^3H-labeled DNA fragments.
P3X was relatively resistant to DNA fragmentation induced by three chemotherapeutic drugs, etoposide, chlorambucil, and YW-200, relative to SP2 (FIG. 5). YW-200 is an experimental DNA-binding chemotherapeutic drug related to CC-1065 (Wang, Y., et al., U.S. Pat. No. 5,843,937, 1998).

Ramos B lymphoma cells = assay: Dox cytotoxicity by trypan blue exclusion in Ramos cells; assay type: cell-based; settings: 24 hr
Procedure: In the present study, the sensitizing activity of W-188 and W-143 was tested in the Raji and Ramos cell lines. Since these two human B lymphoma lines naturally express high levels of anti-apoptotic Bcl-2 proteins, they may be more clinically relevant than the transfected HL-60-Bcl-2 line.
The sensitizing effects of W-143 and W-188 were first tested on these lines in vitro. […] Ramos cells were cultured with different concentrations of Dox with and without W-143 or W-188 at 20 μg/ml for 24 hr, and then viability assessed microscopically by counting at least 100 cells.

HS-treated U937 cells = assay: DNA fragmentation in heat shock-treated U937 cells; assay type: cell-based
Procedure: U937 cells received either no heat shock (HS) treatment or HS treatment at 42° C. for 30 min followed by recovery for 3 hr. The cells were then treated with etoposide or TNF with and without W-188, which alone was nontoxic. After 3 hr, DNA fragmentation was measured by release of ^3H-labeled DNA. As expected, U937 cells exposed to HS treatment were completely resistant to etoposide or TNF-induced DNA fragmentation (FIG. 7).

[1] = tested on: Wehi-Hsp70 fibrosarcoma cells; assay: 20 h DNA fragmentation assay in Wehi cells overexpressing Hsp70; assay type: cell-based, murine; settings: etoposide + 20 μM W-188, FIG. 8
Procedure: This finding was confirmed using the Wehi murine fibrosarcoma cell line that is transfected with and overexpresses Hsp70, as described previously (Jaattela, M., et al., EMBO J. 1998, 17:6124). Wehi transfected with Hsp70 or vector control were cultured with etoposide ±20 μM W-188 in a 20 h DNA fragmentation assay.

[2] = tested on: normal rat intestinal epithelial cells; assay: Toxic effects of etoposide on normal intestinal epithelial cells; assay type: cell-based
Description: LY-ar was highly resistant to apoptosis induced by y-radiation. […] The apparent selective effects of W-188 may be due to the preferential intracellular accumulation of porphyrin compounds in transformed cells as opposed to normal cells reported previously (Bugelski, P. J., et al., Cancer Res., 1981, 41:4606).

GSH = assay: Intracellular GSH levels; assay type: cell-based
Description: (§1) However, more recent findings indicate that W-188 may also downregulate expression of endogenous Bcl-2 in cells that naturally have high levels of this protein.

caspase 3 = assay: Caspase 3 activity (DEVDase); assay type: cell-based
Description: as §1

RIF-1 fibrosarcoma = RIF-1 fibrosarcoma tumor growth in vivo; design: species or system mice; settings: for Effect on tumor growth: five i.p. injections
Description: The present study tested in the ability of W-188 to synergize with Dox and inhibit tumor growth in vivo. The RIF-1 fibrosarcoma model was used because this model has been well-characterized, and naturally expresses high Bcl-2 levels and has a consistent growth pattern (Nahabedian, M. Y., et al., J. Natl. Can. Inst., 1988, 80:739; Chang, M-J., et al., Cancer Res., 1994, 54:5380; Srivastana, M., et al., J. Biol. Chem., 2001, 276:15481).
Groups of five mice each were inoculated s.c. with RIF-1 cells. The tumors were allowed to grow for 12 days to a size of 0.5 cm diameter, which was designated day 0. The mice were then given five i.p. injections every other day with vehicle, Dox 2.5 mg/kg, Dox 5.0 mg/kg, W-188 100 mg/kg, and Dox 5.0 mg/kg+W-188 100 mg/kg. The mice were weighed and the tumor size measured every day.
The protocol was similar to that described for the W-188 experiment in Example 8, except that in this study, mice with established tumors received only three injections of W-143 or Dox every other day starting on day 0.

HL-60-Bcl-2 xenograft = HL-60-Bcl-2 xenograft growth in nude mice; assay type: in vivo; settings: single dose
Procedure: Groups of five nude mice were injected s.c. with 5×10^6 HL-60-Bcl-2 cells, and tumors allowed to grow to a size of 7-10 mm. Tumors were then exposed to a single dose of γ-radiation, a single dose of W-188 or vehicle control, or a single dose of both γ-radiation and W-188. Tumor growth was monitored every other day, and when the tumor volume increased four fold, the animals were sacrificed.

[3] = W-188 + etoposide, HL-60-Bcl-2 and LY-ar cells

SMILES: CCC1=C(C)C(/C=C2\NC(=O)C(C)=C2CC)=NC/1=C\c1[nH]c(/C=C2\NC(=O)C(C)=C2CC)c(C)c1CC [W-188, etiobiliverdin-IV]
- % DNA Fragmentation (HL-60 Bcl-2 cells; Exp 1, etoposide 5 μM + compound 5 μM): 40%
- % DNA Fragmentation (HL-60 Bcl-2 cells; Exp 1, etoposide 5 μM + compound 10 μM): 76%
- % DNA Fragmentation (HL-60 Bcl-2 cells; Exp 2, etoposide 10 μM + compound 10 μM): 62%
- % DNA Fragmentation (HL-60 Bcl-2 cells; Exp 3, etoposide 5 μM + compound 10 μM): 92%
- % DNA Fragmentation (HL-60 Bcl-2 cells; Exp 4, etoposide 5 μM + compound 10 μM): 59%
- % DNA Fragmentation (HL-60 Bcl-2 cells; Exp 5, etoposide 10 μM + compound 10 μM): 55%
- Sensitization to DNA fragmentation induced by TNF, etoposide and UV light (HL-60 Bcl-2 cells; TNF 5 ng/ml, etoposide 20 μM, UV 0.08 J/cm^2, 5 h, FIG. 4A): dose-dependently sensitized HL-60 Bcl-2 cells to DNA fragmentation induced by all three agents
- Optimal doses giving DNA fragmentation comparable with HL-60 neo cells (HL-60 Bcl-2 cells; TNF, etoposide or UV, 5 h): 25 to 50 µg/mL
- Toxicity of compound alone (HL-60 Bcl-2 cells; W-188 alone, no apoptosis inducer): nontoxic
- Bcl-2-sensitizing activity (in words) (HL-60 Bcl-2 cells; tumor cells overexpressing Bcl-2, Table 4): most potent
- Sensitization to drug-induced DNA fragmentation (P3X63Ag8.653 (P3X) cells): sensitized P3X to undergo drug-induced DNA fragmentation at levels close to or equal to those of SP2
- Toxicity of compound alone (Ramos B lymphoma cells; 20 μg/ml, no Dox): completely nontoxic
- Increase of cytotoxicity mediated by Dox (Ramos B lymphoma cells; compound 20 μg/ml + Dox, FIG. 6): over two fold
- Etoposide or TNF-induced DNA fragmentation after HS treatment (HS-treated U937 cells; HS 42° C. 30 min, recovery 3 hr, 3 hr assay, FIG. 7): levels of etoposide or TNF-induced DNA fragmentation comparable to that seen in normal U937 cells
- Toxicity of compound alone (HS-treated U937 cells; W-188 alone): nontoxic
- Etoposide-induced DNA fragmentation [1]: underwent DNA fragmentation at levels comparable to that observed with the Wehi-vector control
- Effect on toxic effects of etoposide on normal cells [2]: did not increase the toxic effects of etoposide
- Intracellular levels of GSH (GSH; [3]): caused depletion of GSH
- Intracellular levels of GSH (GSH; W-188 alone): did not affect intracellular levels of GSH or caspase 3 activity
- Caspase 3 activity (DEVDase) (caspase 3; [3]): activation of caspase 3
- Caspase 3 activity (DEVDase) (caspase 3; W-188 alone): did not affect intracellular levels of GSH or caspase 3 activity
- Effect on tumor growth (RIF-1 fibrosarcoma; W-188 100 mg/kg + Dox 5.0 mg/kg): synergistically inhibited tumor growth
- Tumor size relative to vehicle control (RIF-1 fibrosarcoma; W-188 100 mg/kg + Dox 5.0 mg/kg, day 12, p=0.0005): only half the size of the vehicle control
- Effect on tumor growth (RIF-1 fibrosarcoma; W-188 100 mg/kg alone, data not shown): no effect on tumor growth
- Effect on tumor growth (HL-60-Bcl-2 xenograft; W-188 200 mg/kg alone): no significant effect
- Effect on tumor growth (HL-60-Bcl-2 xenograft; W-188 400 mg/kg alone, p=0.005): significantly inhibited tumor growth
- Effect on tumor growth (HL-60-Bcl-2 xenograft; γ-radiation + W-188 200 mg/kg, p=0.006): even greater inhibition of tumor growth compared to radiation alone
